What was measured:
[1] = system: CaM/4Ca^2+ with R1 labels at A17C–R1 and A128C–R1; conditions: labelled versus unlabelled CaM/4Ca^2+; cited from earlier work
CaM/4Ca^2+ = assay: Combined time-resolved DEER and ssNMR: binding pathway of M13 to CaM/4Ca^2+; design: species or system Human

For KRRWKKNFIAVSAANRFKKISSSGAL [M13], which “reduction of affinity for M13 by R1 labels at A17C–R1 and A128C–R1” value [1] is on record?
Its value is “about 2.5 fold”.

And the “τ, conformational rearrangement of state B to state C” value (CaM/4Ca^2+)?
Its value is 7 to 18 ms.

What about the “τ, state A* to collapsed intermediate B” value (CaM/4Ca^2+) of the same sequence?
The value was 1.5 to 2.5 ms.

And the “timescale τ, state A converted to final compact complex state C” value (CaM/4Ca^2+; abstract)?
Its value is ≤ 600 μs.

Reference: paper PMC8833187 (Proceedings of the National Academy of Sciences of the …, 2022)
